From patent US10858373B2, “Heterocyclic spiro compounds as MAGL inhibitors” (Pfizer Inc., priority 2017, dated 2020)
Read-outs that look alike come from different tables or passages of the source.

How the values were obtained:
[1] = biological target: T1, human recombinant Monoacylglycerol Lipase (Homo sapiens (Human), UniProt Q99685); test: MAGL inactivation (enzyme progress curves, kinact/KI); type: biochemical; conditions: from plot of Kobs vs. compound concentration; T=0 min protocol; geometric mean of 2-4 determinations
[2] = biological target: T1, human recombinant Monoacylglycerol Lipase; test: MAGL Enzymatic Assay (fluorogenic substrate 7-HCA), IC50; type: biochemical; conditions: geometric mean of 2-4 determinations unless otherwise indicated
Experimental: An equal volume of 7-HCA in assay buffer with 10% DMSO was added either immediately (T=0 min) or after a 30 minute incubation (T=30 min) to initiate the reaction. […] After these dilutions, the final concentration of the test compound ranged from 3 μM to 0.03 nM. […] IC50 values were generated based on a four parameter fit model using ABASE software from IDBS.

T1 sequence (Q99685 whole entry): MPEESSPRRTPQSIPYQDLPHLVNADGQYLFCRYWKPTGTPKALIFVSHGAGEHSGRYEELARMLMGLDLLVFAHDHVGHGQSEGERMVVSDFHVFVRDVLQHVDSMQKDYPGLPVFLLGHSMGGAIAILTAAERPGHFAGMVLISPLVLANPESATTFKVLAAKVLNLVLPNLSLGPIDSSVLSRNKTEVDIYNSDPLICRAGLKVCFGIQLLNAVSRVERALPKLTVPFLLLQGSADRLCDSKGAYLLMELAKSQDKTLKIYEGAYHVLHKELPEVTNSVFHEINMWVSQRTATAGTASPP

MAGL Kinact/Kl [1]: 3290 1/s per M
IC50 ([2]; substrate added after a 30 minute incubation (T=30 min), read-out: MAGL (T = 30 min) IC50): > 247 nM
IC50 ([2]; substrate added immediately (T=0 min), read-out: MAGL (T = 0 min) IC50): > 692 nM
Compound: CN(C(=O)C(C)(C)C)C1COC2(CCN(C(=O)ON3C(=O)CCC3=O)CC2)C1 (stereo not drawn) [Example 51, N-(8-{[(2,5-dioxopyrrolidin-1-yl)oxy]carbonyl}-1-oxa-8-azaspiro[4.5]dec-3-yl)-N,2,2-trimethylpropanamide]
